{"source": "patent US20160366882A1", "about": "“AGROCHEMICAL COMPOSITIONS FOR INDUCING ABIOTIC STRESS TOLERANCE” (VIB VZW, priority 2012, published 2016)", "key": {"[1]": {"system": "catalase-2 mutant A. thaliana plantlets (cat2-2)", "experiment": "agar assay: rescue of cell death of catalase-2 mutants under photorespiratory conditions (Restricted Gas exchange Constant Light; RGCL)", "format": "in vivo, Arabidopsis thaliana", "conditions": "grown under photorespiratory conditions", "method": "FIG. 2: effect of 5 μM of compound 4 on the rescue of cell death of the catalase-2 mutant A. thaliana plantlets when grown under photorespiratory conditions. Photorespiratory conditions are, for example, as herein used, restricted-gas-exchange-constant light conditions. […] Photorespiration (Rp) is a major source of detrimental effects and yield losses in crop plants. Catalase is one of the crucial proteins in the Rp process since it provides the dissipation sink of photosynthetic excitation overload in the role of Rp as a photo-protective mechanism. Secondly, and as part of the same process, catalase provides effective defense against excessive hydrogen peroxide levels, without requiring additional energy from other sources. Catalase knock-out mutant plants thus provide an excellent tool to study the process of Rp (see Vandenabeele S et al., (2003) PNAS 100, 26, 16113-16118). In the disclosure, we developed a high-throughput screening assay by using a catalase-2 deficient plant. […] Fv/Fm is presented as a ratio of variable fluorescence (Fv) over the maximum fluorescence value (Fm). […] On a regular basis Fv/Fm was monitored for all wells, using a Walz Maxi PAM imager. Several days after transfer to constant light the individual wells were visually scored for cell death. […] Three persons scored independently, and only a consensus of ⅔ scores were maintained as positive hits. […]"}, "[2]": {"system": "Maize of the variety Maibi", "experiment": "frost tolerance in maize (crop condition index after frost regime)", "format": "in vivo", "conditions": "24 h later 6 hours at −2° C., assessed 2 days after treatment", "method": "Maize of the variety Maibi was sown in small pots (8×8×8 cm) filled with universal peat at 4 grains per pot. The plants were grown in a non-heated greenhouse until BBCH 13 (3 unfolded leaves). At that stage plants were either or not treated with dichloroprop-P (Duplosan DP, 600 g/l dichloroprop-P, Nufarm UK Limited), using a Birchmeier hand sprayer with an operating pressure of 2 bar. Per object 10 pots were treated. The 10 pots were put in line, 5 cm apart, and were sprayed overhead within 6 seconds. Four different concentrations of dichloroprop-P were applied: 4 mg/l, 8 mg/1, 12 mg/l or 16 mg/l. 24 hours after treatment, the plants were transferred in to a refrigerator that was set at −2° C. for 6 hours. Afterwards the plants were transferred back to the greenhouse. The day after the cold treatment (so 2 days after application of dichloroprop-P) the plants were assessed visually for frost damage. Plants were divided into 3 categories: Good crop condition (=2), only moderate crop condition (=1) or bad crop condition (=0), based on which a crop condition index was calculated, ranging from 0 (bad crop condition) to 100 (good crop condition)."}, "[3]": {"system": "Oilseed rape of the variety Alessio", "experiment": "salt tolerance in oilseed rape (vitality index after salt water irrigation)", "format": "in vivo", "conditions": "24 h later 50 ml salt water per pot, 80 grams of NaCl per liter, assessed 3 and 4 days after treatment", "method": "Oilseed rape of the variety Alessio was sown in small pots (8×8×8 cm) filled with universal peat at 4 grains per pot. The plants were grown in a non-heated greenhouse until BBCH 13 (3 unfolded leaves). At that stage the number of plants per pot was reduced to 2, and the plants were either or not treated with dichloroprop-P (Duplosan DP, 600 g/l dichloroprop-P, Nufarm UK Limited), using a Birchmeier hand sprayer with an operating pressure of 2 bar. Per object 8 pots were treated. The 8 pots were put in line, 5 cm apart, and were sprayed overhead within 6 seconds. Two different concentrations of dichloroprop-P were applied: 4 mg/l or 8 mg/l. 24 hours after treatment, the plants were irrigated with salt water, giving 50 ml of water per pot at a concentration of 80 grams of NaCl per liter of water. The following days the plants were assessed visually for salt damage. Plants were divided into 3 categories: high vitality (=2), only moderate vitality (=1) or low vitality (=0), based on which a vitality index was calculated, ranging from 0 (low vitality) to 100 (high vitality)."}}}
{"smiles": "CCCCC(CC)COC(=O)C(C)Oc1ccc(Cl)cc1Cl", "note": "(stereo not shown) [variant 1]", "values": [{"measurement": "rescue of cell death of the cat2-2 mutant", "setting": "[1]; 100 nM", "result": "rescues cell death"}]}
{"smiles": "Cc1ccnc(NC(=O)COc2ccc(Cl)cc2Cl)c1", "note": "[variant 2]", "values": [{"measurement": "rescue of cell death of the cat2-2 mutant", "setting": "[1]; 50 nM", "result": "rescues cell death"}]}
{"smiles": "CC(Oc1ccc(Cl)cc1Cl)C(=O)O", "note": "(stereo not shown) [dichloroprop-P]", "values": [{"measurement": "crop condition after frost (frost tolerance)", "setting": "[2]; spray 4 mg/l at BBCH 13", "result": "better crop condition after frost"}, {"measurement": "crop condition after frost (frost tolerance)", "setting": "[2]; spray 12 mg/l at BBCH 13", "result": "negative effect on frost tolerance"}, {"measurement": "crop condition after frost (frost tolerance)", "setting": "[2]; spray 16 mg/l at BBCH 13", "result": "negative effect on frost tolerance"}, {"measurement": "vitality in salt stress conditions (salt stress tolerance)", "setting": "[3]; spray 4 mg/l at BBCH 13", "result": "comparable increase in salt stress tolerance"}, {"measurement": "vitality in salt stress conditions (salt stress tolerance)", "setting": "[3]; spray 8 mg/l at BBCH 13", "result": "comparable increase in salt stress tolerance"}]}
